Columns and labels:
[1] = biological target: T1, Full length human recombinant HDAC8 protein (Homo sapiens, UniProt Q9BY41); experiment: In vitro histone deacetylase assay: enzymatic HDAC8 electrophoretic mobility shift assay; format: biochemical; conditions: electrophoretic mobility shift assay; enzyme 1 nM; 2 μM fluorescently labeled peptide substrate RHKK(Ac)-NH2; 25° C.; 12 concentrations; read-out: HDAC8 IC50
T1 construct: Full length human recombinant HDAC8 protein was expressed in baculoviral system; made in house
T1 sequence (Q9BY41 1-377): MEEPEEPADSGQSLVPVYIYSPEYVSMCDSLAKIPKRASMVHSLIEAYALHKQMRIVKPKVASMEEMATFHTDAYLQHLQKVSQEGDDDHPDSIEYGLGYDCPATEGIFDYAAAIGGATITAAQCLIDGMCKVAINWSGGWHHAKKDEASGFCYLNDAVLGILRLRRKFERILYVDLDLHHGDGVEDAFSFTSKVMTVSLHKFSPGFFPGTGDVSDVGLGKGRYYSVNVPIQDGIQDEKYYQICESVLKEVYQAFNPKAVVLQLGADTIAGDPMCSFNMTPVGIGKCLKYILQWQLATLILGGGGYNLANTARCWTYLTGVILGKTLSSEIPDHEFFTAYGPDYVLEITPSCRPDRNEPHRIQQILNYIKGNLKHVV

[2] = biological target: T2, Recombinant N-terminal GST tag full-length human HDAC8 (Homo sapiens, UniProt Q9BY41); experiment: HDAC8 probe binding assay, time resolved fluorescence (TRF) format; conditions: compounds grouped by IC50 range (Table 2)
T2 construct: Recombinant N-terminal GST tag full-length human HDAC8; purchased SignalChem H90-30G-1000; host or cells: baculovirus in Sf9 insect cells
T2 sequence (Q9BY41 1-377): T1 sequence (Q9BY41 1-377)
Outline: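 IC50 values come from four-parameter logistic fits of percent inhibition, scaled between DMSO (high) and no-enzyme (low) controls. Time-resolved fluorescence (ex 340, em 485/535 nm) was read after 16 h at room temperature. Enzyme was Sf9-expressed full-length human HDAC8 with an N-terminal GST tag, in a probe-binding format.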

IC50 [1]: 0.025 to 0.1 µM | IC50 [2]: 0.025 to 0.1 µM
SMILES: O=C(NO)c1ccc2c(c1)N(Cc1ccc(F)c(C(F)(F)F)c1)C(=O)CO2 [Compound I-267, 4-(4-fluoro-3-(trifluoromethyl)benzyl)-N-hydroxy-3-oxo-3,4-dihydro-2H-benzo[b][1,4]oxazine-6-carboxamide]
